In patent US20180110796A1, “COMPOSITIONS AND METHODS FOR THE TREATMENT OF HBV INFECTION” (Spring Bank Pharmaceuticals, Inc., priority 2015, published 2018):

Legend:
[1] = system: wild type HBV or resistant variants of HBV (polymerase M204V, M204I, L180M, L180M/M204V, N236T); assay: Antiviral assays in cells chronically infected with wild type HBV or resistant variants (Example 4); assay type: cell-based; settings: added to the cells daily for nine consecutive days
Experimental: Antiviral assays were carried out in cells chronically infected with resistant variants of HBV. In order to gauge the efficacy of Formula (IIa) and the antiviral nucleoside analogs lamivudine (3TC) and adefovir dipivoxil (ADV) against the tested strains, the in vitro activity (EC50, μM) was determined using six different cell samples chronically infected with HBV. Each cell sample was infected with either wild type HBV or a resistant variant of HBV, wherein the resistant variants comprise mutations in the HBV polymerase (P) at the following amino acid positions: M204V, M204I, L180M, L180M/M204V, and N236T. In each assay, Formula (IIa), 3TC, or ADV was added to the cells daily for nine consecutive days.

[2] = system: woodchuck hepatitis virus (WHV); assay: Formula (IIa) in combination with entecavir, sequential oral treatment of chronic WHV carrier woodchucks (Example 3); assay type: in vivo, woodchuck (Marmota monax)
Text: Ten (10) woodchucks chronically infected with WHV were used. Woodchucks were born in captivity and were inoculated at 3 days of age with cWHV7P2a inoculum, then reared until 11 months of age. Prior to the study, woodchucks were confirmed as established chronic carriers of WHV based on established criteria including the presence of WHV surface antigen (WHsAg), antibody against […], and WHV DNA. Woodchucks used in the study were of both gender and approximately between 12 and 14 months of age at the start of the study.
Two (2) groups of five (5) chronic WHV carrier woodchucks each were used in the study:
Group 1 was orally treated for 4 weeks with ETV at a daily dose of 0.5 mg/kg starting at T0, followed by add-on treatment with Formula (IIa) for 12 weeks at a daily dose of 30 mg/kg. Woodchucks were then followed for a total of 24 weeks.
Group 2 was orally treated for 12 weeks with Formula (IIa) at a daily dose of 30 mg/kg starting at T0, followed by add-on treatment with ETV for 4 weeks at a daily dose of 0.5 mg/kg. Woodchucks were then also followed for a total of 24 weeks.
Formula (IIa) was supplied as a pre-weighed powder in individual containers. An amount of powder sufficient to treat all 10 pre-weighed woodchucks per day with Formula (IIa) was mixed directly with woodchuck diet powder (Dyets Inc., Bethlehem, Pa.) and then suspended with HPLC water. The drug was orally administered with a dose syringe at T0 (Group 2) or after 4 weeks of treatment with ETV (Group 1), and thereafter every day for 12 weeks (84 days). Drug dosing was then followed by an extra 2 ml of woodchuck liquid diet to ensure complete consumption of Formula (IIa).
ETV was provided as powder. An amount of powder sufficient to treat all 10 woodchucks per day was suspended in isotonic saline at a concentration of 0.5 mg/ml. A volume (ml) of drug solution equivalent to the body weight (kg) of an individual woodchuck was then mixed with approximately 3-5 ml of woodchuck liquid diet and administered orally with a dose syringe at T0 (Group 1) or after 12 weeks of treatment with Formula (IIa) (Group 2), and thereafter every day for 4 weeks (28 days). ETV dosing was followed by an extra 2 ml of woodchuck liquid diet to ensure complete consumption of drug.
Prior to administration of Formula (IIa) or ETV at T0, then weekly until the end of the study at week 24, whole blood samples were drawn from each woodchuck under ketamine/xylazine anesthesia for determinations of serum WHV DNA, WHsAg, and anti-WHs (see Summary Table below). […] Blood samples were kept at room temperature following collection and serum harvested upon observation of clot retraction. Harvested serum was transferred to microcentrifuge tubes and stored frozen at −70° C. until use.
The induction of an innate immune response in peripheral blood and liver of woodchucks by combination treatment with Formula (IIa) and ETV were determined via real time PCR-based assays. Whole blood samples were obtained prior to the start of treatment with Formula (IIa) at T0, and then at weeks 4, 10, 16, 20, and 24 (Group 1) or at weeks 6, 12, 16, 20, and 24 (Group 2) (see Summary Table below). Whole blood was drawn into PAXgene blood tubes at the indicated time points and stored at −70° C. until use. Total RNA was isolated from whole blood and treated with DNase using the PAXgene Blood miRNA Kit (Quiagen). This was followed by reverse transcription of mRNA into cDNA and amplification of host immune response genes by real time PCR. Woodchuck cytokine and interferon-stimulated genes included IFN-α, IFN-β, interleukin 6 (IL-6), 2′-5′-oligoadenylate synthetase 1 (OAS-1), interferon-induced 17 kDa protein (ISG15), and interferon gamma-induced protein 10 (IP-10or CXCL10). Woodchuck 18S rRNA expression was used to normalize target gene expression. […]

[3] = system: woodchuck hepatitis virus (WHV); assay: Antiviral activity of Formula (Ia), intraperitoneal, in chronic WHV carrier woodchucks (Example 1); assay type: in vivo, woodchuck (Marmota monax)
Experimental: Three groups of five chronic WHV carrier woodchucks were used in this in this study. Formula (Ia) was administered intraperitoneally to two groups for a total of 4 weeks. Groups for drug treatment received Formula (Ia) at either 10 mg/kg/day or 30 mg/kg/day. The third group received physiological saline intraperitoneally and served as placebo-treated controls.
Blood samples for WHV serology, serum […], and hematological and biochemical profiles were obtained prior to the start of treatment and taken thereafter according to the study design. The body weight of each subject was recorded when the woodchucks were anesthetized and bled. The recorded body weights of the drug-treated woodchucks were compared to the placebo-treated control woodchucks to assess possible drug toxicity. WHsAg and anti-WHs and anti-WHc antibodies were determined qualitatively using established ELISA protocols. Dilutions of serum were used to ensure the detection of these markers […] conditions.
WHV DNA in serum was initially measured by dot blot hybridization and quantified by comparing signals of test specimens and standards of known WHV DNA concentration using a homologous probe. […] Quantitative WHV nucleic acid analyses were also performed using a real-time PCR assay with samples containing serum WHV DNA below the limit of detection by dot blot analysis. […]

SMILES: CC(C)(C)C(=O)OCOP(=O)(COCCn1cnc2c(N)ncnc21)OCOC(=O)C(C)(C)C [ADV, adefovir dipivoxil, reference compound]
- efficacy against cells infected with wild type and resistant HBV strains (in vitro activity, FIG. 31) [1]: efficacious against cells infected with all the HBV strains tested

SMILES: C=C1[C@H](CO)[C@@H](O)C[C@@H]1n1cnc2c(=O)[nH]c(N)nc21 [ETV, entecavir, reference compound]
- expected suppression of serum viremia ([2]; ETV 0.5 mg/kg daily oral for 4 weeks, expectation from previous studies): 3-4 log10
- reductions in serum WHV DNA from pretreatment level during the 4 weeks of ETV ([2]; ETV 0.5 mg/kg daily oral, Group 1): marked reductions
- reductions in serum WHsAg from pretreatment level during the 4 weeks of ETV administration ([2]; ETV 0.5 mg/kg, most woodchucks of Group 1): marked reductions

SMILES: COC1[C@@H](OP(=O)(S)OC[C@H]2O[C@@H](n3cnc4c(N)ncnc43)C[C@H]2O)[C@@H](CO)O[C@H]1n1ccc(=O)[nH]c1=O (stereo partly drawn) [Formula (Ia)]
- staining intensity of cytoplasmic WHcAg in liver tissues compared to placebo controls ([3]; 30 mg/kg, end of treatment at week 4): significantly decreased
- consistent reductions in serum WHsAg and in hepatic expression of WHcAg and WHsAg ([3]; 10 and 30 mg/kg/day, 4 weeks): not observed on a dose-response basis
